In PMC12606622, “Assessment of the Binding Patterns for Endocrine Disrupting Chemicals in Complex with Estrogen and Androgen Receptors by Leveraging the Asclepios Enalos KNIME Nodes” (Journal of Chemical Information and Modeling, 2025):
Read-outs that look alike come from different tables or passages of the source.

Assays:
human AR = molecular target: T1, human AR (Homo sapiens, UniProt P10275); format: cell-based; settings: for % residual agonist activity: at 30 μM, 3 nM 11-ketoDHT only = 100%
T1 sequence (P10275 640-920): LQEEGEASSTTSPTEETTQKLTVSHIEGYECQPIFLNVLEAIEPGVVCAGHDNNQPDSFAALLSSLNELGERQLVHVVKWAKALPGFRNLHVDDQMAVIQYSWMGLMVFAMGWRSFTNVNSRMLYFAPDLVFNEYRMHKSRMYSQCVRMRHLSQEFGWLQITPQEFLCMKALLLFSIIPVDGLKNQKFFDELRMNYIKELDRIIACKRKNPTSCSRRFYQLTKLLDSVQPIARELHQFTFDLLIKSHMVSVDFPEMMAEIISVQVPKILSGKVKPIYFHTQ
Description: (§1) HEK293 cells (ACC305, DSMZ, Braunschweig, Germany) were cultivated at 37 °C in 5% CO2 in DMEM supplemented with 10% FBS, 2 mM L-glutamine, 1 mM sodium pyruvate, 100 U/mL penicillin, and 100 μg/mL streptomycin. For exposure studies, cells were cultivated in phenol red-free DMEM, supplemented with 1% dextran-coated charcoal-treated FBS.
In the case of the N–C-terminal interaction assay of AR, the ESR1 effector plasmid was replaced by 0.02 μg each of pVP16-AR (1–503) and pM-AR (640–920). Aliquot (0.6 μL) of 1 mg/mL PEI MAX 40K solution was diluted to 25 μL with 150 mM NaCl. The diluted PEI MAX 40K was added to the diluted DNA mixture, and the mixture was incubated at room temperature for 15 min. In parallel, HEK 293 cells were adjusted to 40,000 cells in 200 μL of culture medium per well. The transfection mixture (50 μL) was added to the cell suspension, gently mixed, and pipetted into a well of a 96-well plate. The next day, the transfected cells were treated with chemicals for 24 h before cell lysis with 50 μL per well of passive lysis buffer (Promega). Firefly and Renilla luciferase activities were measured as described previously. Results were normalized for transfection efficiency by dividing firefly luciferase activity by Renilla luciferase activity, measured from the same well. Assays were performed in technical triplicate in each independent experiment. […] Concentration response curves were fitted with nonlinear regression using the formula with a variable slope (four parameters) or the formula with a standard slope (three parameters) of GraphPad Prism 10.4.1 (GraphPad Software, Boston, MA, USA), as indicated in the respective figure legends.
AR N–C-terminal interaction mammalian two-hybrid assays were run in transiently transfected HEK293 cells, which were treated afterward for 24 h with the indicated concentrations of chemicals. […] Data are presented as a mean ± SD fold change (n = 4 independent experiments) with respect to the normalized reporter gene activity of cells treated with 0.1% DMSO only. […] Data are presented as mean ± SD (n = 3 independent experiments) with respect to the normalized reporter gene activity of cells treated with 3 nM 11-ketoDHT only, which was designated as 100%. Curves were fitted with nonlinear regression using the formula with a standard slope (three parameters) of GraphPad Prism 10.4.1.

human ERα (ESR1) = molecular target: T2, human ERα (ESR1) (Homo sapiens, UniProt P03372); assay: ERα mammalian one-hybrid reporter gene assay in transiently transfected HEK293 cells; format: cell-based; settings: for E max [FC]: fold change vs 0.1% DMSO, at conc. BPA 10, BPF 10, BPS 30, ZEA 0.1 μM
T2 sequence (P03372 251-595): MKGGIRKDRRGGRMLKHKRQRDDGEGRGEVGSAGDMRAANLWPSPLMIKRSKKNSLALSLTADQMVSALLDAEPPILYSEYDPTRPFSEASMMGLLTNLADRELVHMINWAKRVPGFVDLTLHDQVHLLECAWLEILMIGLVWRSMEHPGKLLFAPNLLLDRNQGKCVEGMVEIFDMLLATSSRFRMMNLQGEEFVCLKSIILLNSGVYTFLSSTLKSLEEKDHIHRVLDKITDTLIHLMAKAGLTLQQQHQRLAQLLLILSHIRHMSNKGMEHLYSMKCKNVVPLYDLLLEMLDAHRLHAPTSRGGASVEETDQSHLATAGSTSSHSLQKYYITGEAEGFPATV
Description: as §1
Per well of a 96-well plate, a plasmid DNA mixture consisting of 0.26 μg of pGL4-G5, 0.04 μg of pM-ESR1 (251–495), and 0.005 μg of pGL4.75 [hRluc/CMV] was diluted with 150 mM NaCl to a final volume of 25 μL. […] Aliquot (0.6 μL) of 1 mg/mL PEI MAX 40K solution was diluted to 25 μL with 150 mM NaCl. The diluted PEI MAX 40K was added to the diluted DNA mixture, and the mixture was incubated at room temperature for 15 min. In parallel, HEK 293 cells were adjusted to 40,000 cells in 200 μL of culture medium per well. The transfection mixture (50 μL) was added to the cell suspension, gently mixed, and pipetted into a well of a 96-well plate. The next day, the transfected cells were treated with chemicals for 24 h before cell lysis with 50 μL per well of passive lysis buffer (Promega). Firefly and Renilla luciferase activities were measured as described previously. Results were normalized for transfection efficiency by dividing firefly luciferase activity by Renilla luciferase activity, measured from the same well. Assays were performed in technical triplicate in each independent experiment. […] Concentration response curves were fitted with nonlinear regression using the formula with a variable slope (four parameters) or the formula with a standard slope (three parameters) of GraphPad Prism 10.4.1 (GraphPad Software, Boston, MA, USA), as indicated in the respective figure legends.
ERα mammalian one-hybrid assays were executed in transiently transfected HEK293 cells, which were treated afterward for 24 h with the indicated concentrations of chemicals. Data are presented as a mean ± SD fold change (n ≥ 3 independent experiments) with respect to the normalized reporter gene activity of cells treated with 0.1% DMSO only.

[1] = HEK293, 24 h treatment, four-parameter fit, n ≥ 3, read-out: EC50 mean (activating ERα)

Structure (SMILES) | E max [FC] (human ERα (ESR1)) | % residual agonist activity (human AR) [%] | EC50 (human ERα (ESR1); [1]) [nM] | further results
C[C@]12CCC(=O)C[C@@H]1CC[C@H]1[C@@H]3CC[C@H](O)[C@@]3(C)CC(=O)[C@@H]12 [11-ketoDHT, 11-Ketodihydrotestosterone, reference compound] | – | – | – | EC50 (human AR; agonist mode, HEK293, 24 h, n = 4, 95% CI 2.3–4.7 nM, read-out: EC50 (induction of AR N–C interaction)): 3.3 nM
CC(C)(c1ccc(O)cc1)c1ccc(O)cc1 [Bisphenol A] | 19.6 | 3.1 | – | IC50 (human AR; read-out: IC50 mean (inhibiting AR)): 980 nM
Oc1ccc(Cc2ccc(O)cc2)cc1 [Bisphenol F] | 56.1 | – | 2100 | –
O=S(=O)(c1ccc(O)cc1)c1ccc(O)cc1 [Bisphenol S] | 48.5 | – | 5200 | –
C[C@H]1CCCC(=O)CCC/C=C/c2cc(O)cc(O)c2C(=O)O1 [Zearalenone] | 89.9 | 1.5 | – | EC50 (human ERα (ESR1)): 4.9 nM; potency fold higher than BPA (ERα activation) (human ERα (ESR1); ratio of EC50 values, vs BPA): 120 fold; potency fold higher than BPF (ERα activation) (human ERα (ESR1); ratio of EC50 values, vs BPF): 430 fold; potency fold higher than BPS (ERα activation) (human ERα (ESR1); ratio of EC50 values, vs BPS): 1060 fold; IC50 (human AR): 3700 nM
